Like-named read-outs stand apart in the source and are kept apart here. Blank lines part the entries; values can stand above or below the compound they belong to.
Legend:
[1] = PAMPA permeability; assay type: in vitro ADME
[2] = biological target: DCN1-UBE2M protein-protein interaction (Homo sapiens, UniProt Q96GG9); assay type: binding
[3] = tested on: DCN1 and DCN2; test: Pulse-chase isoform selectivity, NEDD8 transfer from UBE2M to CUL2; assay type: biochemical, human; details: pulse-chase assay against all five DCN family members
[4] = biological target: RBX1 (Homo sapiens, UniProt P62877); test: DCN1-independent neddylation of cullins catalyzed solely by RBX1; assay type: biochemical
Chain of RBX1 (P62877 whole entry, species assumed): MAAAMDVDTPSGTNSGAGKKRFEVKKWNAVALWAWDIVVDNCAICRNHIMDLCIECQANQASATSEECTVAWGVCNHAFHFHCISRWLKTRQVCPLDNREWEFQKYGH
Chain of RBX1 (Q13617 whole entry partner, species assumed): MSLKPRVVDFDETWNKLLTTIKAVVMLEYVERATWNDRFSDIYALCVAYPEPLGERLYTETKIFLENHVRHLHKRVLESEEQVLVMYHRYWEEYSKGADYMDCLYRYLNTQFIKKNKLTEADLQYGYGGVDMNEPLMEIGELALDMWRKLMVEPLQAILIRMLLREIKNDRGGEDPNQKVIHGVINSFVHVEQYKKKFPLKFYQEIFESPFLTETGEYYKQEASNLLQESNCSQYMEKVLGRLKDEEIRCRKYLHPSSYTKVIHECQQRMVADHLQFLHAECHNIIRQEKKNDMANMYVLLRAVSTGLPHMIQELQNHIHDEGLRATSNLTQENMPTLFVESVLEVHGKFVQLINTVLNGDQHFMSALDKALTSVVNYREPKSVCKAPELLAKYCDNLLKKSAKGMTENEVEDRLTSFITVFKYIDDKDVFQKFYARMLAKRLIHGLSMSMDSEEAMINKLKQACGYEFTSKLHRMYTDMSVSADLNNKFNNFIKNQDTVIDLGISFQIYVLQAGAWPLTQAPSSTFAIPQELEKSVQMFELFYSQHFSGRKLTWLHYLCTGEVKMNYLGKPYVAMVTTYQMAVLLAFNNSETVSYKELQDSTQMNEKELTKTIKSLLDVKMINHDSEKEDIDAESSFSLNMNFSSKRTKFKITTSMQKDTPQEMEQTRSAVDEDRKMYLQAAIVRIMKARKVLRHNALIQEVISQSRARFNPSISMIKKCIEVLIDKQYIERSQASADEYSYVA

[5] = biological target: T1, DCN1 (Homo sapiens, UniProt Q96GG9); assay type: biochemical
Target sequence in this assay (Q96GG9 62-259 limits assumed): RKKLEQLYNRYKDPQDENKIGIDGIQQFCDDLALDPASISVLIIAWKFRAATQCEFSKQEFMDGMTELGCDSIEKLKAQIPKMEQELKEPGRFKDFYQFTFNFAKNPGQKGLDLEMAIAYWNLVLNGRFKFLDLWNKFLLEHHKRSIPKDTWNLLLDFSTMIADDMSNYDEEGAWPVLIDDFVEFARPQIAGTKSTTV

[6] = tested on: HCC95 cells; test: In vitro proliferation assay, HCC95 cells; assay type: cell-based
[7] = tested on: cullin neddylation in HCC95 cells; test: Western blot for inhibition of cellular cullin neddylation in HCC95 cells; assay type: cell-based; details: for Inhibition of cullin neddylation in HCC95 cells / Steady-state level of cullin neddylation for CUL1 and CUL3 / Steady-state level of cullin neddylation for CUL2, CUL4A and CUL5: 20 μM; for Inhibition of cullin neddylation in HCC95 cells: dosing at T = 0 and 24 hr, 48 hours; for Steady-state level of cullin neddylation for CUL1 and CUL3 / Steady-state level of cullin neddylation for CUL2, CUL4A and CUL5: HCC95 cells; for Accumulation of well-recognized proteasomal targets (immunoblot): acute pharmacological inhibition, Supplementary Figure 6
[8] = biological target: T2, NEDD8 E1 enzyme (Homo sapiens, UniProt Q13564+Q8TBC4); test: Inhibition of the NEDD8 E1 activating enzyme; assay type: biochemical; details: concentrations as high as 50 μM
T2 sequence (Q8TBC4 1-463): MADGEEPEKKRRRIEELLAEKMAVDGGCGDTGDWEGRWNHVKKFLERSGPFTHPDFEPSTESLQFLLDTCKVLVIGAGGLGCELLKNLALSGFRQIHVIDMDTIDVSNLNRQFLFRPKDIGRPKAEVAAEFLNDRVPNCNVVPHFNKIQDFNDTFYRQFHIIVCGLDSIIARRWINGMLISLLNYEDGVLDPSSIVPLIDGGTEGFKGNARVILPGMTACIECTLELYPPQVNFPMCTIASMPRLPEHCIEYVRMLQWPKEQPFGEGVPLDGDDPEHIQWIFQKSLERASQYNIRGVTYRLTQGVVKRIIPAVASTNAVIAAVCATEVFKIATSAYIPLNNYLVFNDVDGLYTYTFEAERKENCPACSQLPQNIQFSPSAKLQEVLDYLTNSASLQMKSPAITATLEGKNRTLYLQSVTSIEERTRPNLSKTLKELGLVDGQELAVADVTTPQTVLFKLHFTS
T2 sequence (Q13564 1-534): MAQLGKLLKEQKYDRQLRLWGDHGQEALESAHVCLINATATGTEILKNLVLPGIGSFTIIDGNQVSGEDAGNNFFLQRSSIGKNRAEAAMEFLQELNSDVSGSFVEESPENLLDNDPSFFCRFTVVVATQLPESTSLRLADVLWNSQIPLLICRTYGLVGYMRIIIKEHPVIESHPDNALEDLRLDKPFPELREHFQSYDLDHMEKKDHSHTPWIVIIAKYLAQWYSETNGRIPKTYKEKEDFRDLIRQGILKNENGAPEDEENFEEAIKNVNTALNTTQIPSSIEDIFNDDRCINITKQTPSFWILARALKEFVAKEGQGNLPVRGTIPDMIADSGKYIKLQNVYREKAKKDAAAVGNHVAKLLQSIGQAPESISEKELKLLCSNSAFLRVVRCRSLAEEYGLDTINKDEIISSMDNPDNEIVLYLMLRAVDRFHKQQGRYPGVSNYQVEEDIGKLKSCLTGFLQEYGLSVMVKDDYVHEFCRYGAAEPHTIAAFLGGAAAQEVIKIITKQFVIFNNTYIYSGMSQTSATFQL

[9] = biological target: T1, DCN1; assay type: cell-based; details: HCC95 cells, 10 μM, 1 h, 53 °C
Target sequence in this assay (Q96GG9 whole entry): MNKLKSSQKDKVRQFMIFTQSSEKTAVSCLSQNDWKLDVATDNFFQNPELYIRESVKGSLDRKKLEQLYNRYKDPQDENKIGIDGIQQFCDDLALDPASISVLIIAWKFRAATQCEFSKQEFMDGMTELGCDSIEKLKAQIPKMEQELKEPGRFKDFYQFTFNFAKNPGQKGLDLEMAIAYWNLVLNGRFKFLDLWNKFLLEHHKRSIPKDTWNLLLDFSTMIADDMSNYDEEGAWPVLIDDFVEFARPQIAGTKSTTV

[10] = tested on: DCN3-5; test: Pulse-chase isoform selectivity, NEDD8 transfer from UBE2M to CUL2; assay type: biochemical, human; details: at 50 μM
[11] = tested on: total cellular ubiquitination; details: cited from earlier work
[12] = biological target: UBE2M (N-acetylated) (Homo sapiens) (UniProt P61081); details: cited from earlier work
Chain of UBE2M (N-acetylated) (Homo sapiens) (P61081 whole entry): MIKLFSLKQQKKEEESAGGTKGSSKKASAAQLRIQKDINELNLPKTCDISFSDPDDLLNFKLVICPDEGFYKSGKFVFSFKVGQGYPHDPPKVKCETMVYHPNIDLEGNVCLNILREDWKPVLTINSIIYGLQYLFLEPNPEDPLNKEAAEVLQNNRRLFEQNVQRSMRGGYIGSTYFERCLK

Chain of DCN1-UBE2M protein-protein interaction (Q96GG9 62-259 limits assumed): as the sequence (Q96GG9 62-259 limits assumed) above
Chain of DCN1 (from UniProt Q96GG9) (Q96GG9 whole entry): as the sequence (Q96GG9 whole entry) above

Pampa [1]: 1400 ± 250 ×10^−6 cm/s
Compound: O=C(Nc1ccccc1)NC1CCN(Cc2ccccc2)CC1 [Compound 23]

Pampa [1]: >0.0022 cm/s
Compound: Cc1ccc(NC(=O)NC2CCN(Cc3ccccc3)CC2)cc1Cl [Compound 25]

Pampa [1]: >0.0022 cm/s
Compound: Cn1nccc1-c1cccc(NC(=O)NC2CCN(Cc3ccccc3)CC2)c1 [Compound 32]

Pampa [1]: 1600 ±170 ×10^−6 cm/s
Compound: CCCN1CCC(N(CCC)C(=O)Nc2cccc(C(F)(F)F)c2)CC1 [Compound 35]

Pampa [1]: >0.0022 cm/s
Compound: CCCCN(C(=O)Nc1cccc(C(F)(F)F)c1)C1CCN(CCC)CC1 [Compound 36]

Pampa [1]: 1900±200 ×10^−6 cm/s
Compound: CCCN1CCC(N(CC(C)C)C(=O)Nc2cccc(C(F)(F)F)c2)CC1 [Compound 37]

Pampa [1]: 1500 ±5.4 ×10^−6 cm/s
Compound: CCCN1CCC(N(CCC(C)C)C(=O)Nc2cccc(C(F)(F)F)c2)CC1 [Compound 38]

Pampa [1]: 1600 ± 1 ×10^−6 cm/s
Compound: CCCN1CCC(N(CCOC)C(=O)Nc2cccc(C(F)(F)F)c2)CC1 [Compound 39]

Pampa [1]: >0.0022 cm/s
Compound: CCCN1CCC(N(CC2CCCCC2)C(=O)Nc2cccc(C(F)(F)F)c2)CC1 [Compound 40]

Pampa [1]: >0.0022 cm/s
Compound: CCCN1CCC(N(Cc2ccco2)C(=O)Nc2cccc(C(F)(F)F)c2)CC1 [Compound 41]

Pampa [1]: 1300 ±79 ×10^−6 cm/s
Compound: CCCN1CCC(N(Cc2cccnc2)C(=O)Nc2cccc(C(F)(F)F)c2)CC1 [Compound 43]

Pampa [1]: >0.0022 cm/s
Compound: CCCN1CCC(N(Cc2ccc3c(c2)OCO3)C(=O)Nc2cccc(C(F)(F)F)c2)CC1 [Compound 45, 1-(benzo[d][1,3]dioxol-5-ylmethyl)-1-(1-propylpiperidin-4-yl)-3-(3-(trifluoromethyl)phenyl)urea]

Pampa [1]: >0.0022 cm/s
Compound: O=C(Nc1cccc(C(F)(F)F)c1)N(Cc1ccccc1)C1CCNCC1 [Compound 47]

Pampa [1]: 1400 ± 540 ×10^−6 cm/s
Compound: CCCCCN1CCC(N(Cc2ccccc2)C(=O)Nc2cccc(C(F)(F)F)c2)CC1 [Compound 50]

Pampa [1]: <1e-06 cm/s
Compound: O=C(Nc1cccc(C(F)(F)F)c1)N(Cc1ccccc1)C1CCN(CC2CCCCC2)CC1 [Compound 58]

Pampa [1]: <1e-06 cm/s
Compound: CCCS(=O)(=O)N1CCC(N(Cc2ccccc2)C(=O)Nc2cccc(C(F)(F)F)c2)CC1 [Compound 61]

Pampa [1]: <1e-06 cm/s
Compound: CCCCS(=O)(=O)N1CCC(N(Cc2ccccc2)C(=O)Nc2cccc(C(F)(F)F)c2)CC1 [Compound 62]

Continued, compound first:

Compound: Cc1ccccc1CN1CCC(NC(=O)Nc2cccc(C(F)(F)F)c2)CC1 [Compound 13]
Pampa [1]: 1200 ± 35 ×10^−6 cm/s

Compound: O=C(Nc1cccc(C(F)(F)F)c1)NC1CCN(Cc2ccccc2F)CC1 [Compound 15]
Pampa [1]: 1500 ± 1 ×10^−6 cm/s

Compound: Cc1cccc(CN2CCC(NC(=O)Nc3cccc(C(F)(F)F)c3)CC2)c1 [Compound 16]
Pampa [1]: >0.0022 cm/s

Compound: O=C(Nc1cccc(C(F)(F)F)c1)NC1CCN(Cc2cccc(Cl)c2)CC1 [Compound 17]
Pampa [1]: 1700 ± 1 ×10^−6 cm/s

Compound: O=C(Nc1cccc(C(F)(F)F)c1)NC1CCN(Cc2cccc(F)c2)CC1 [Compound 18]
Pampa [1]: >0.0022 cm/s

Compound: Cc1ccc(CN2CCC(NC(=O)Nc3cccc(C(F)(F)F)c3)CC2)cc1 [Compound 19]
Pampa [1]: >0.0022 cm/s

Compound: O=C(Nc1cccc(C(F)(F)F)c1)NC1CCN(Cc2ccc(Cl)cc2)CC1 [Compound 20]
Pampa [1]: 1300 ± 43 ×10^−6 cm/s

Compound: O=C(Nc1cccc(C(F)(F)F)c1)NC1CCN(Cc2ccc(F)cc2)CC1 [Compound 21]
Pampa [1]: >0.0022 cm/s

Compound: Cc1cccc(NC(=O)NC2CCN(Cc3ccccc3)CC2)c1 [Compound 26]
Potency in the TR-FRET assay (in words) [2]: practically inactive

Compound: CC(=O)O[C@H]1CN(Cc2ccccc2)CC[C@@H]1NC(=O)Nc1cccc(C(F)(F)F)c1 [Compound 34, (3S,4S)-1-benzyl-4-(3-(3-(trifluoromethyl)phenyl)ureido)piperidin-3-yl acetate]
Potency in the TR-FRET assay (in words) [2]: did not possess improved potency compared to our initial HTS hit 1

Compound: CCCN1CCC(N(Cc2ccccc2)C(=O)Nc2cccc(C(F)(F)F)c2)CC1 [Compound 42]
Pampa [1]: 1800 ± 1 ×10^−6 cm/s | Selectivity for inhibiting neddylation activity of DCN1 and DCN2 over DCN3-5 [3]: selective and approximately equipotent inhibition

Compound: CCCN1CCC(N(Cc2cc(F)cc(C(F)(F)F)c2)C(=O)Nc2cccc(C(F)(F)F)c2)CC1 [Compound 46]
Pampa [1]: >0.0022 cm/s | Inhibition of DCN1-independent neddylation of cullins catalyzed solely by RBX1 [4]: do not inhibit

Compound: CCCCN1CCC(N(Cc2ccccc2)C(=O)Nc2cccc(C(F)(F)F)c2)CC1 [Compound 49, 1-benzyl-1-(1-butylpiperidin-4-yl)-3-(3-(trifluoromethyl)phenyl)urea]
Inhibition of DCN1 stimulated NEDD8 transfer from UBE2F to the cullins [5]: inhibit | Pampa [1]: >0.0022 cm/s | Inhibition of DCN1-independent neddylation of cullins catalyzed solely by RBX1 [4]: do not inhibit | Growth inhibition of monolayer cultures at 20 μM [6]: only minimally growth inhibitory | Inhibition of cullin neddylation in HCC95 cells [7]: inhibited neddylation | Steady-state level of cullin neddylation for CUL1 and CUL3 [7]: selectively decreases | Steady-state level of cullin neddylation for CUL2, CUL4A and CUL5 [7]: relatively unaffected | Accumulation of well-recognized proteasomal targets (immunoblot) [7]: failed to cause gross accumulation | Inhibition of the E1 activating enzyme for NEDD8 [8]: do not inhibit | Thermal stability of the DCN1 protein (CETSA) [9]: clearly enhanced

Compound: CCCC(C)N1CCC(N(Cc2ccccc2)C(=O)Nc2cccc(C(F)(F)F)c2)CC1 (stereo not shown) [Compound 52, 1-benzyl-1-(1-(pentan-2-yl)piperidin-4-yl)-3-(3-(trifluoromethyl)phenyl)urea]
Inhibition of DCN1 stimulated NEDD8 transfer from UBE2F to the cullins [5]: inhibit | Pampa [1]: 1400 ±39 ×10^−6 cm/s | Inhibition of neddylation activity of DCN3-5 [10]: slight activity | Inhibition of DCN1-independent neddylation of cullins catalyzed solely by RBX1 [4]: do not inhibit | Growth inhibition of monolayer cultures at 20 μM [6]: only minimally growth inhibitory | Inhibition of cullin neddylation in HCC95 cells [7]: inhibited neddylation | Steady-state level of cullin neddylation for CUL1 and CUL3 [7]: selectively decreases | Steady-state level of cullin neddylation for CUL2, CUL4A and CUL5 [7]: relatively unaffected | Accumulation of well-recognized proteasomal targets (immunoblot) [7]: failed to cause gross accumulation | Inhibition of the E1 activating enzyme for NEDD8 [8]: do not inhibit | Thermal stability of the DCN1 protein (CETSA) [9]: clearly enhanced

Compound: O=C(Nc1cccc(C(F)(F)F)c1)N(Cc1ccccc1)C1CCN(Cc2cccnc2)CC1 [Compound 67]
Pampa ([1]; mean ± SD): >0.0022 cm/s

Compound: O=C(Nc1cccc(C(F)(F)F)c1)N(Cc1ccccc1)C1CCN(Cc2ccc(F)cc2)CC1 [Compound 68]
Pampa ([1]; mean ± SD): >0.0022 cm/s

Compound: O=C(Nc1cccc(C(F)(F)F)c1)N(Cc1ccccc1)C1CCN(Cc2ccc3c(c2)OCO3)CC1 [Compound 70]
Pampa ([1]; mean ± SD): >0.0022 cm/s

Compound: O=C(Nc1cccc(C(F)(F)F)c1)N(Cc1ccccc1)C1CCN(Cc2ccc3c(c2)OCCO3)CC1 [Compound 71]
Pampa ([1]; mean ± SD): >0.0022 cm/s

Compound: CC(C)(C)N1CCC(N(Cc2ccc3c(c2)OCO3)C(=O)Nc2cccc(C(F)(F)F)c2)CC1 [Compound 73]
Inhibition of DCN1-independent neddylation of cullins catalyzed solely by RBX1 [4]: do not inhibit

Compound: CCCCN1CCC(N(Cc2ccccc2)C(=O)Nc2cccnc2)CC1 [NAcM-NEG, reference compound]
Thermal stability of the DCN1 protein (CETSA) [9]: largely degraded

Compound: NS(=O)(=O)OC[C@@H]1C[C@@H](n2ccc3c(N[C@H]4CCc5ccccc54)ncnc32)C[C@@H]1O [Pevonedistat, reference compound]
Reduction of total cellular ubiquitination [11]: 10-20% | Inhibition of cullin neddylation in cells by positive control ([7]; MLN4924 1 μM, single dose, 48 hours (Figure 7)): completely inhibits all cullin neddylation

Compound: DCN1 (from UniProt Q96GG9)
Kd [12]: 1 µM

— PMC5898815 (Journal of medicinal chemistry, 2018)
